Drawing on US12281122B1, “PI3K inhibitors” (Cogent Biosciences, Inc., priority 2023, dated 2025), this text covers IC50 for 19 compounds.

For orientation: IC50 means the midpoint of a concentration-inhibition curve. Higher therefore signals weaker potency.

The test system of assay [1] is SKBR3 (PI3Kα-Wild Type) cell line. As to the kind of experiment: HTRF phospho-AKT(S473) cell assay in SKBR3 cells. The assay is classed as cell-based, human. The procedure, abridged:
(§1)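 HTRF read-out of phospho-AKT(S473) in lysates gave IC50 values after 2 h compound exposure at 37° C. Dose series was 12 points at 1:3, topping at 5 μM for T47D and 10 μM for SKBR3. Only SKBR3 received 70 ng/ml PDGF-BB during the last 15 minutes.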
(In TR-FRET formats the signal depends on donor and acceptor labels being close together.)

The test system of assay [2] is T47D (PI3Kα-H1047R) cell line. Nature of the assay: HTRF phospho-AKT(S473) cell assay in T47D cells. The assay is classed as cell-based, human. The procedure, abridged:
as §1

Setting [3] is: Homo sapiens, SK-BR-3; HTRF phospho-AKT(S473), SKBR3 (PI3Kα-Wild Type) cells, 2 hours compound incubation, PDGF-BB stimulated.
The mark [4] stands for this setting: Homo sapiens; HTRF phospho-AKT(S473), T47D (PI3Kα-H1047R) cells, 2 hours compound incubation.
Setting [5] is: Homo sapiens, SK-BR-3; SKBR3 (PI3Kα-Wild Type) cells, HTRF phospho-AKT(S473), 2 hours compound incubation, PDGF-BB stimulated.
Where [6] appears, read: Homo sapiens; T47D (PI3Kα-H1047R) cells, HTRF phospho-AKT(S473), 2 hours compound incubation.

Consider `CCn1c(N2CCc3nn(C)cc3C2)nc2c([C@@H](C)Nc3ccc(Cl)nc3C(=O)NS(C)(=O)=O)cc(C)cc2c1=O` [Compound 546, (R)-6-chloro-3-((1-(3-ethyl-6-methyl-2-(2-methyl-2,4,6,7-tetrahydro-5H-pyrazolo[4,3-c]pyridin-5-yl)-4-oxo-3,4-dihydroquinazolin-8-yl)ethyl)amino)-N-(methylsulfonyl) picolinamide], for which the half-inhibitory concentration (IC50) was 1000 to 5000 nM in assay [1] (setting [3]) and < 250 nM in assay [2] (setting [4]).
For the compound `C[C@@H](Nc1ccc(Cl)nc1C(=O)NS(C)(=O)=O)c1cc(F)cc2c(=O)n(C)c(N3CC[C@H](Oc4cnn(C)c4)C3)nc12` [Compound 388, 6-chloro-3-(((R)-1-(6-fluoro-3-methyl-2-((S)-3-((1-methyl-1H-pyrazol-4-yl)oxy)pyrrolidin-1-yl)-4-oxo-3,4-dihydroquinazolin-8-yl)ethyl)amino)-N-(methylsulfonyl) picolinamide], the IC50 in assay [1] (setting [5]) was 1000 to 5000 nM; in assay [2] (setting [6]), < 250 nM.
As to `Cc1cc([C@@H](C)Nc2ccc(Cl)nc2C(=O)NS(C)(=O)=O)c2nc(-c3ccc(-c4cnn(C)c4)cn3)n(C)c(=O)c2c1` [Compound 285, (R)-6-chloro-3-((1-(3,6-dimethyl-2-(5-(1-methyl-1H-pyrazol-4-yl)pyridin-2-yl)-4-oxo-3,4-dihydroquinazolin-8-yl)ethyl)amino)-N-(methylsulfonyl) picolinamide], the IC50 in assay [1] (setting [5]) is 1000 to 5000 nM; in assay [2] (setting [6]), < 250 nM.
Turning to `CCn1c(N2CCC(n3cc(C)cn3)CC2)nc2c([C@@H](C)Nc3ccc(Cl)nc3C(=O)NS(C)(=O)=O)cc(C)cc2c1=O` [Compound 526, (R)-6-chloro-3-((1-(3-ethyl-6-methyl-2-(4-(4-methyl-1H-pyrazol-1-yl)piperidin-1-yl)-4-oxo-3,4-dihydroquinazolin-8-yl)ethyl)amino)-N-(methylsulfonyl) picolinamide], the IC50 was 1000 to 5000 nM in assay [1] (setting [3]) and < 250 nM in assay [2] (setting [4]).
The matching figures for `COc1cc([C@H]2[C@@H]3CN(c4nc5c([C@@H](C)Nc6ccc(Cl)nc6C(=O)NS(C)(=O)=O)cc(C)cc5c(=O)n4C)C[C@@H]32)n[nH]1` [Compound 722, 6-chloro-3-(((R)-1-(2-((1R,5S,6R)-6-(5-methoxy-1H-pyrazol-3-yl)-3-azabicyclo[3.1.0]hexan-3-yl)-3,6-dimethyl-4-oxo-3,4-dihydroquinazolin-8-yl)ethyl)amino)-N-(methylsulfonyl) picolinamide]: 1000 to 5000 nM and 250 to 500 nM.
On to `Cc1cc([C@@H](C)Nc2ccc(Cl)nc2C(=O)NS(C)(=O)=O)c2nc(N3CC[C@@H](Oc4cnn(C)c4)C3)n(C)c(=O)c2c1` [Compound 320, 6-chloro-3-(((R)-1-(3,6-dimethyl-2-((R)-3-((1-methyl-1H-pyrazol-4-yl)oxy)pyrrolidin-1-yl)-4-oxo-3,4-dihydroquinazolin-8-yl)ethyl)amino)-N-(methylsulfonyl) picolinamide], for which the IC50 in assay [1] (setting [5]) was 1000 to 5000 nM; in assay [2] (setting [6]) it was < 250 nM.
In the case of `Cc1cnc(C2CCN(c3nc4c([C@@H](C)Nc5ccc(Cl)nc5C(=O)NS(C)(=O)=O)cc(C)cc4c(=O)n3C)CC2)nc1` [Compound 404, (R)-6-chloro-3-((1-(3,6-dimethyl-2-(4-(5-methylpyrimidin-2-yl)piperidin-1-yl)-4-oxo-3,4-dihydroquinazolin-8-yl)ethyl)amino)-N-(methylsulfonyl) picolinamide], the concentration for half-maximal inhibition (IC50) in assay [1] (setting [5]) was 1000 to 5000 nM; in assay [2] (setting [6]), < 250 nM.
As for `Cc1cc([C@@H](C)Nc2ccc(Cl)nc2C(=O)NS(C)(=O)=O)c2nc(N3CCC(c4nn(C)c5ccccc45)CC3)n(C)c(=O)c2c1` [Compound 675, (R)-6-chloro-3-((1-(3,6-dimethyl-2-(4-(1-methyl-1H-indazol-3-yl)piperidin-1-yl)-4-oxo-3,4-dihydroquinazolin-8-yl)ethyl)amino)-N-(methylsulfonyl) picolinamide], the values for the IC50 in assay [1] (setting [3]) and in assay [2] (setting [4]) were ≥ 5000 nM and 250 to 500 nM, respectively.
Turning to `CCn1c(-c2ccc3nn(C)cc3c2)nc2c([C@@H](C)Nc3ccc(Cl)nc3C(=O)NS(C)(=O)=O)cc(C)cc2c1=O` [Compound 812, (R)-6-chloro-3-((1-(3-ethyl-6-methyl-2-(2-methyl-2H-indazol-5-yl)-4-oxo-3,4-dihydroquinazolin-8-yl)ethyl)amino)-N-(methylsulfonyl) picolinamide], the IC50 is 1000 to 5000 nM in assay [1] (setting [3]) and < 250 nM in assay [2] (setting [4]).
Regarding `[2H]C([2H])([2H])n1ncc(F)c1C1CCN(c2nc3c([C@@H](C)Nc4ccc(Cl)nc4C(=O)NS(C)(=O)=O)cc(C)cc3c(=O)n2C)CC1` [Compound 457, (R)-6-chloro-3-((1-(2-(4-(4-fluoro-1-(methyl-d3)-1H-pyrazol-5-yl)piperidin-1-yl)-3,6-dimethyl-4-oxo-3,4-dihydroquinazolin-8-yl)ethyl)amino)-N-(methylsulfonyl) picolinamide], the figures for the IC50 in assay [1] (setting [3]) and in assay [2] (setting [4]) were ≥ 5000 nM and 500 to 1000 nM, respectively.
On to `Cc1cc([C@@H](C)Nc2ccc(Cl)nc2C(=O)NS(C)(=O)=O)c2nc(N3CCC(c4cnc(C)nc4)CC3)n(C3CC3)c(=O)c2c1` [Compound 607, (R)-6-chloro-3-((1-(3-cyclopropyl-6-methyl-2-(4-(2-methylpyrimidin-5-yl)piperidin-1-yl)-4-oxo-3,4-dihydroquinazolin-8-yl)ethyl)amino)-N-(methylsulfonyl) picolinamide], for which the concentration for half-maximal inhibition (IC50) is 1000 to 5000 nM in assay [1] (setting [3]) and < 250 nM in assay [2] (setting [4]).
For `Cc1cc([C@@H](C)Nc2ccc(Cl)nc2C(=O)NS(C)(=O)=O)c2nc(N3CCC[C@@H](c4cnccn4)C3)n(C)c(=O)c2c1` (relative stereo) [Compound 618, 6-chloro-3-(((R)-1-(3,6-dimethyl-4-oxo-2-((R*)-3-(pyrazin-2-yl)piperidin-1-yl)-3,4-dihydroquinazolin-8-yl)ethyl)amino)-N-(methylsulfonyl) picolinamide], the values for the IC50 in assay [1] (setting [3]) and in assay [2] (setting [4]) were 1000 to 5000 nM and 250 to 500 nM, respectively.
The corresponding values for `Cc1cc([C@@H](C)Nc2ccc(Cl)nc2C(=O)NS(C)(=O)=O)c2nc(N3CCN4C[C@H](n5cc(C)cn5)C[C@H]4C3)n(C)c(=O)c2c1` [Compound 680, 6-chloro-3-(((R)-1-(3,6-dimethyl-2-((7R,8aS)-7-(4-methyl-1H-pyrazol-1-yl)hexahydropyrrolo[1,2-a]pyrazin-2(1H)-yl)-4-oxo-3,4-dihydroquinazolin-8-yl)ethyl)amino)-N-(methylsulfonyl) picolinamide] are ≥ 5000 nM and 250 to 500 nM.
Regarding `Cc1cc([C@@H](C)Nc2ccc(Cl)nc2C(=O)NS(C)(=O)=O)c2nc(N3C[C@@H]4C[C@H](c5cc[nH]n5)[C@H]3C4)n(C)c(=O)c2c1` (relative stereo) [Compound 347, 3-(((R)-1-(2-((1R,4R,6R*)-6-(1H-pyrazol-3-yl)-2-azabicyclo[2.2.1]heptan-2-yl)-3,6-dimethyl-4-oxo-3,4-dihydroquinazolin-8-yl)ethyl)amino)-6-chloro-N-(methylsulfonyl) picolinamide], the results for the IC50 in assay [1] (setting [5]) and in assay [2] (setting [6]) were ≥ 5000 nM and 250 to 500 nM, respectively.
Regarding `Cc1cc([C@@H](C)Nc2ccc(Cl)nc2C(=O)NS(C)(=O)=O)c2nc(N3CCc4c(cnn4C4COC4)C3)n(C)c(=O)c2c1` [Compound 335, (R)-6-chloro-3-((1-(3,6-dimethyl-2-(1-(oxetan-3-yl)-1,4,6,7-tetrahydro-5H-pyrazolo[4,3-c]pyridin-5-yl)-4-oxo-3,4-dihydroquinazolin-8-yl)ethyl)amino)-N-(methylsulfonyl) picolinamide], the results for the 50% inhibitory concentration (IC50) in assay [1] (setting [5]) and in assay [2] (setting [6]) were 1000 to 5000 nM and < 250 nM, respectively.
On to `Cc1cc([C@@H](C)Nc2ccc(Cl)nc2C(=O)NS(C)(=O)=O)c2nc(N3CCC(c4c(F)cnn4C4CC4)CC3)n(C)c(=O)c2c1` [Compound 455, (R)-6-chloro-3-((1-(2-(4-(1-cyclopropyl-4-fluoro-1H-pyrazol-5-yl)piperidin-1-yl)-3,6-dimethyl-4-oxo-3,4-dihydroquinazolin-8-yl)ethyl)amino)-N-(methylsulfonyl) picolinamide], for which the IC50 in assay [1] (setting [3]) was 1000 to 5000 nM; in assay [2] (setting [4]), < 250 nM.
As for `Cc1cc([C@@H](C)Nc2ccc(Cl)nc2C(=O)NS(C)(=O)=O)c2nc(-c3ccc(Nc4ccn(C)n4)nc3)n(C)c(=O)c2c1` [Compound 339, (R)-6-chloro-3-((1-(3,6-dimethyl-2-(6-((1-methyl-1H-pyrazol-3-yl)amino)pyridin-3-yl)-4-oxo-3,4-dihydroquinazolin-8-yl)ethyl)amino)-N-(methylsulfonyl) picolinamide], the IC50 in assay [1] (setting [5]) is 1000 to 5000 nM; in assay [2] (setting [6]) it was < 250 nM.
The matching figures for `Cc1cc([C@@H](C)Nc2ccc(Cl)nc2C(=O)NS(C)(=O)=O)c2nc(N3CCC(c4ccn[nH]4)CC3)n(C)c(=O)c2c1` [Compound 165, (R)-3-((1-(2-(4-(1H-pyrazol-5-yl)piperidin-1-yl)-3,6-dimethyl-4-oxo-3,4-dihydroquinazolin-8-yl)ethyl)amino)-6-chloro-N-(methylsulfonyl) picolinamide]: 1000 to 5000 nM and < 250 nM.
As for `Cc1cc([C@@H](C)Nc2ccc(Cl)nc2C(=O)NS(C)(=O)=O)c2nc(N3CCC[C@@H](c4ccn(C(F)F)n4)C3)n(C)c(=O)c2c1` (relative stereo) [Compound 768, 6-chloro-3-(((R)-1-(2-((R*)-3-(1-(difluoromethyl)-1H-pyrazol-3-yl)piperidin-1-yl)-3,6-dimethyl-4-oxo-3,4-dihydroquinazolin-8-yl)ethyl)amino)-N-(methylsulfonyl) picolinamide], the results for the IC50 in assay [1] (setting [3]) and in assay [2] (setting [4]) were ≥ 5000 nM and 250 to 500 nM, respectively.
